Test results reported in paper PMC6140548 (Oncoimmunology, 2018).

Target: HLA-A02:01 (MHC-I) on the surface of TAP-deficient T2 cells (Homo sapiens, UniProt P04439, D140Y/D185E/D98H/E176V/E277Q/G131W/G231S/I119V/I121R/I166T/I218V/L300P/L318F/N151K/N90K/P208A/P217A/Q86G/Q94H/R138H/R169H/T345S)
Experiment: Peptide binding assay using TAP deficient T2 cells
Type: cell-based
Details: PAX7-encoded 9-mer; statement of the discussion

## GLVSSISRV
  affinity for HLA-A02:01 (in words): very high affinity
